Data taken from US7736625B2, “Light stabilized in vivo stain composition and method of manufacture” (Zila, Inc., priority 2001, dated 2010).

Assay: light stability of thiazine dye solution exposed to ambient incandescent light
Type: physicochemical
Settings: total metal content less than 0.2 wt. %; initially deep-blue; overnight in the laboratory
Procedure: This example illustrates the light-instability of a TC product with negligible content of metal ions.
A sample of the TC product is prepared in accordance with Example 1 of my U.S. Pat. No. 6,086,852, incorporated herein by reference, and further purified by preparative high performance liquid chromatography. The total metal content of this sample is less than 0.2 wt. %.
An aliquout of this purified TC product sample is deep-blue in color.

With `Cc1cc2nc3ccc(=[N+](C)C)cc-3sc2cc1N.[Cl-]` [TC product, tolonium chloride] the “appearance of the solution after standing overnight exposed to ambient incandescent light” value was “becomes colorless”.
